Results reported in publication PMC8016166, “Identification of a Potent and Selective 5-HT1A Receptor Agonist with In Vitro and In Vivo Antinociceptive Activity” (ACS Chemical Neuroscience, 2020).
Like-named read-outs stand apart in the source and are kept apart here.

Columns and labels:
human 5-HT1AR = molecular target: T1, human 5-HT1AR (Homo sapiens, UniProt P08908); assay: Radioligand binding at 5-HT1A in transfected HEK293 cells; details: for Ki / 5-HT1A pKi ± SEM: HEK293 cells transfected with human 5-HT1AR, [3H]-8-OH-DPAT, at least two independent experiments; for Ki: read-out: 5-HT1A pKi ± SEM (converted)
T1 construct: expressed in transfected cells
T1 sequence (P08908 1-422): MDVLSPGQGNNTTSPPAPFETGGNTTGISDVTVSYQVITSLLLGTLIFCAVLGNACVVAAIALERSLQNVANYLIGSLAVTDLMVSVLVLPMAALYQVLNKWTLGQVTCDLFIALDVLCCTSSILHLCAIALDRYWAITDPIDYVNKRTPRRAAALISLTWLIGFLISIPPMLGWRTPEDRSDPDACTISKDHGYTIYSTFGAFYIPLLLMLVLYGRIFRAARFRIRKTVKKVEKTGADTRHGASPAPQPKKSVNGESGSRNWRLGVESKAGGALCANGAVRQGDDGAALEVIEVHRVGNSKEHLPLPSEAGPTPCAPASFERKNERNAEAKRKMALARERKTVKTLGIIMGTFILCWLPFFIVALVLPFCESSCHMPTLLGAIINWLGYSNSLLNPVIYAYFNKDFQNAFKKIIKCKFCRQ
Protocol: HEK293 cells with stable expression of human 5-HT1A, 5-HT6, and 5-HT7b (prepared with the use of Lipofectamine 2000) were grown in Dulbecco’s Modified Eagle Medium (DMEM) containing 10% dialyzed fetal bovine serum (FBS) and 500 μg/mL G418 sulfate. Liver hepatocellular carcinoma Hep-G2 cells were cultured in DMEM enriched by 10% FBS, 2 mM L-glutamine, 100 IU/mL penicillin, and 50 μg/mL streptomycin (all from Sigma-Aldrich Corporation, a division of Merck KGaA, Darmstadt, Germany). Cell lines were maintained at 37 °C in a humidified atmosphere with 5% CO2. For membrane preparation, the cells were subcultured in 150 cm^2 flasks, grown to 90% confluence, washed twice with prewarmed to 37 °C phosphate buffered saline (PBS), and pelleted by centrifugation (200g) in PBS containing 0.1 mM EDTA and 1 mM dithiothreitol. Prior to membrane preparation, pellets were stored at −80 °C.
The cell pellets were thawed and homogenized in 10 volumes of assay buffer using an Ultra Turrax tissue homogenizer and centrifuged twice at 35 000g for 15 min at 4 °C, with incubation for 15 min at 37 °C in between. The composition of the assay buffers was as follows: for 5-HT1AR: 50 mM Tris HCl, 0.1 mM EDTA, 4 mM MgCl2, 10 μM pargyline, and 0.1% ascorbate; for 5-HT6R: 50 mM Tris HCl, 0.5 mM EDTA, and 4 mM MgCl2; for 5-HT7bR: 50 mM Tris HCl, 4 mM MgCl2, 10 μM pargyline, and 0.1% ascorbate. All the assays were incubated in a total volume of 200 μL in 96-well microtiter plates for 1 h at 37 °C, except 5-HT1AR which was incubated at room temperature. The process of equilibration was terminated by rapid filtration through Unifilter plates with a 96-well cell harvester and radioactivity retained on the filters was quantified on a Microbeta plate reader (PerkinElmer, USA). […] Nonspecific binding was defined with 10 μM of 5-HT in 5-HT1AR and 5-HT7R binding experiments, where 10 μM of methiothepine was used in 5-HT6R assays. Each compound was tested in triplicate at 7 concentrations (10^–10–10^–4 M). The results were analyzed with one-way ANOVA followed by the Bonferroni’s posthoc test. The inhibition constants (pKi) were calculated from the Cheng-Prusoff equation.[46] The results were expressed as means of at least two separate experiments.

5-HT1AR = molecular target: T2, 5-HT1AR (Rattus norvegicus, UniProt P19327); assay: Effect of WAY100635 on compound-stimulated [35S]GTPγS binding (Tables SI-1, SI-2); format: biochemical; details: for Emax: basal set to 100%; for EC50: rat frontal cortex homogenates, read-out: pEC50 ± SEM, compound alone (converted); for shift ratio: with WAY100635 10^-7 M vs agonist alone
T2 construct: from tissue; hippocampus per the main-text methods
T2 sequence (P19327 1-422): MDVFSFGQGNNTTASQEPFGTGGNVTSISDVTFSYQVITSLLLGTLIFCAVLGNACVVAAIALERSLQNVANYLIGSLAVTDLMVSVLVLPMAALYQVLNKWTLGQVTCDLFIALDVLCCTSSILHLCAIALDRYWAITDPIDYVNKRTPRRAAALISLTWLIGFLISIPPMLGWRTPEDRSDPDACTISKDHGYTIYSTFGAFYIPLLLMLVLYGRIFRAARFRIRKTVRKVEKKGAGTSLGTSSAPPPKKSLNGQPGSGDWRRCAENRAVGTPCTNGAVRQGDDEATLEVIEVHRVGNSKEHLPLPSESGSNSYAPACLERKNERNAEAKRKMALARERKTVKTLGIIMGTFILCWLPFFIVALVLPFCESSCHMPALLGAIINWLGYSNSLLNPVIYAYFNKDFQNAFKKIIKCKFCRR
Protocol: The [^35S]GTPγS assay was performed according to the method described previously.[49] […] Nonspecific binding was determined with 100 μM of unlabeled GTPγS. The reaction mixture was incubated for 90 min at 36 °C in a volume of 250 μL. […] Next, 96-well Unifilter Plates (PerkinElmer, USA) were presoaked for 1 h with 50 mM Tris-HCl (pH = 7.4) before harvesting. The reaction was terminated by vacuum filtration onto filter plates with the Filter Mate Harvester (PerkinElmer, USA). The samples were then rapidly washed with 2 mL of 50 mM Tris-HCl (pH = 7.4) buffer. The filter plates were dried for 2 h at 50 °C. After drying, 45 μL of EcoScint-20 scintillant (PerkinElmer, USA) was added to every well. The radioactivity was counted in a Trilux MicroBeta^2 counter (PerkinElmer, USA). The data were analyzed with GraphPad Prism 5.0 software (GraphPad Software, San Diego California USA, www.graphpad.com). To determine whether compound-stimulated [^35S]GTPγS binding involved 5-HT1A receptors, two protocols were used. […]
WAY).) Results were expressed as means ± SEM. Curves were fitted with a one-site sigmoidal dose-response equation […]
calculated as the ratio of pEC50 in the presence of WAY100635 divided by the pEC50 of agonist alone. Basal 5-HT1AR activation was set to 100%. Results were analyzed with one-way ANOVA followed by the Bonferroni’s post-hoc test. […]
WAY100635 (10^-10 M - 10^-5 M, WAY). Results were expressed as means ± SEM. Curves were fitted with a one-site sigmoidal dose-response equation and Emax (%) of the EC80 agonist concentration alone and in the presence of WAY100635 were determined from 2 independent experiments. Basal (no ligand added) [35S]GTPγS binding was set to 100%. Results were analyzed with one-way ANOVA followed by the Bonferroni’s post-hoc test.

[1] = Table SI-1, read-out: Emax (%) ± SEM, compound alone
[2] = Table SI-2, read-out: Emax (%) ± SEM of EC80 agonist concentration alone

SMILES | binding affinity at 5-HT1AR, (S)-2 vs (R)-2 (human 5-HT1AR) | Ki (human 5-HT1AR) | Emax (5-HT1AR; [1]) | EC50 (5-HT1AR; Table SI-1) | shift ratio (5-HT1AR; Table SI-1) | Emax (5-HT1AR; [2]) | 5-HT1A pKi ± SEM (human 5-HT1AR)
Cn1cncc1-c1ccccc1OCCNC[C@H]1COC(c2ccccc2)(c2ccccc2)O1 [(S)-2, N-((2,2-Diphenyl-1,3-dioxolan-4-yl)methyl)-2-(2-(1-methyl-1H-imidazol-5-yl)phenoxy)ethan-1-ammonium hydrogenoxalate] | 3 fold | 4.07 nM | 175 ± 2.7% | 25.1 nM | 25.1 | 156 ± 21.7% | 
c1ccc(C2(c3ccccc3)OC[C@@H](CNCCOc3ccccc3-c3ccncc3)O2)cc1 [(R)-1, N-[(2,2-Diphenyl-1,3-dioxolan-4-yl)methyl]-2-[2-(pyridin-4-yl)phenoxy]ethan-1-ammonium hydrogenoxalate] |  |  | 158 ± 5.9% | 63.1 nM | 10.0 | 149 ± 35.1% | 8.35 ± 0.9
c1ccc(C2(c3ccccc3)OC[C@H](CNCCOc3ccccc3-c3ccncc3)O2)cc1 [(S)-1, N-[(2,2-Diphenyl-1,3-dioxolan-4-yl)methyl]-2-[2-(pyridin-4-yl)phenoxy]ethan-1-ammonium hydrogenoxalate] |  |  | 138 ± 2.9% | 15.8 nM | 39.8 | 134 ± 24.5% | 8.03 ± 0.10
Cn1cncc1-c1ccccc1OCCNCC1COC(c2ccccc2)(c2ccccc2)O1 (racemic) [rac-2, N-((2,2-diphenyl-1,3-dioxolan-4-yl)methyl)-2-(2-(1-methyl-1H-imidazol-5-yl)phenoxy)ethan-1-ammonium hydrogenoxalate] |  | 7.41 nM | 184 ± 2.7% | 39.8 nM | 31.6 | 158 ± 24.6% | 
Cn1cncc1-c1ccccc1OCCNC[C@@H]1COC(c2ccccc2)(c2ccccc2)O1 [(R)-2, N-((2,2-Diphenyl-1,3-dioxolan-4-yl)methyl)-2-(2-(1-methyl-1H-imidazol-5-yl)phenoxy)ethan-1-ammonium hydrogenoxalate] |  | 12 nM | 143 ± 3.6% | 63.1 nM | 19.9 | 140 ± 18.8% | 
c1ccc(C2(c3ccccc3)OCC(CNCCOc3ccccc3-c3ccncc3)O2)cc1 (racemic) [rac-1, N-[(2,2-diphenyl-1,3-dioxolan-4-yl)methyl]-2-[2-(pyridin-4-yl)phenoxy]ethan-1-ammonium hydrogenoxalate] |  | 9.12 nM | 151 ± 4.2% | 100 nM | 6.3 | 138 ± 28.4% | 
